ChEMBL document CHEMBL1136776, “Aromatic reduced amide bond peptidomimetics as selective inhibitors of neuronal nitric oxide synthase” (J Med Chem, 2003)
Square brackets hold non-standard residues; d marks the D form. Peptide text beside a SMILES is read from it. dArg(NO2) = N=C(NCCC[C@@H](N)C(=O)O)N[N+](=O)[O-]

What was measured:
[1] = Selectivity ratio of Ki value of eNOS to nNOS
[2] = Selectivity ratio of Ki value of iNOS to nNOS
Nitric oxide synthase 3 = target: T1, Nitric oxide synthase 3 (Bos taurus, UniProt P29473)
T1 sequence (P29473 whole entry): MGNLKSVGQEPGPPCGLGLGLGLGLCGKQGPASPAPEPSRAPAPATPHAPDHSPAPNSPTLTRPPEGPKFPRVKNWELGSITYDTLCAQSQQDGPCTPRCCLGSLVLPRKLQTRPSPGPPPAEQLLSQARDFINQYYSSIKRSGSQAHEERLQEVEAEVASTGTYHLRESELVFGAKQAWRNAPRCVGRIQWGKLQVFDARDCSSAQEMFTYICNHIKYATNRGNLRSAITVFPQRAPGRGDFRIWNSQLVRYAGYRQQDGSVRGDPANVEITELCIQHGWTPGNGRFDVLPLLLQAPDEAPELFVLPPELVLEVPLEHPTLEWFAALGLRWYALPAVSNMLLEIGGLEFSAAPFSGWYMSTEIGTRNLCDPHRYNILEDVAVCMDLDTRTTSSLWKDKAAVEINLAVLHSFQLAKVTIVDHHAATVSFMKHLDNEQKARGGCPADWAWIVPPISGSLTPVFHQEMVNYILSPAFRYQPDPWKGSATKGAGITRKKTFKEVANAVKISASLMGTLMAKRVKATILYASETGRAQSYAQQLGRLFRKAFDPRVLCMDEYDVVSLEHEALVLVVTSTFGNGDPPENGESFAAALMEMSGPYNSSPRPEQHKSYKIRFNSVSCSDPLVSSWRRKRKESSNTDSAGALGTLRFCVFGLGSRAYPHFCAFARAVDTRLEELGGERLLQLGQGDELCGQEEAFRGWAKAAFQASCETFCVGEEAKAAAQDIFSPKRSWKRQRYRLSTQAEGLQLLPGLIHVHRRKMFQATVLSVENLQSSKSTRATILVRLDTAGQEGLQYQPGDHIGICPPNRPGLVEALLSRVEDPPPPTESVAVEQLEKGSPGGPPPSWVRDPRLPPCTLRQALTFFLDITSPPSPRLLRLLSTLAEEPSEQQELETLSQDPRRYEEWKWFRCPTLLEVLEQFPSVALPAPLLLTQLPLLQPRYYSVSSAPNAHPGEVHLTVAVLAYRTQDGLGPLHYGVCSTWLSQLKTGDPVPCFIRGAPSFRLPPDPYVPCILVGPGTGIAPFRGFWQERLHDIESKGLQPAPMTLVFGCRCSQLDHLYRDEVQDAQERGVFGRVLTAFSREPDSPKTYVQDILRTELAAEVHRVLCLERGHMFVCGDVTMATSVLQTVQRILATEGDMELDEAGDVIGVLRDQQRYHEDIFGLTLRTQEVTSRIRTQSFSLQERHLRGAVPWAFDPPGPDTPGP
Description: Inhibitory activity against endothelial nitric oxide synthase (eNOS)

Nitric oxide synthase 1 = Nitric oxide synthase 1 (Rattus norvegicus, UniProt P29476)
Sequence of Nitric oxide synthase 1 (P29476 whole entry): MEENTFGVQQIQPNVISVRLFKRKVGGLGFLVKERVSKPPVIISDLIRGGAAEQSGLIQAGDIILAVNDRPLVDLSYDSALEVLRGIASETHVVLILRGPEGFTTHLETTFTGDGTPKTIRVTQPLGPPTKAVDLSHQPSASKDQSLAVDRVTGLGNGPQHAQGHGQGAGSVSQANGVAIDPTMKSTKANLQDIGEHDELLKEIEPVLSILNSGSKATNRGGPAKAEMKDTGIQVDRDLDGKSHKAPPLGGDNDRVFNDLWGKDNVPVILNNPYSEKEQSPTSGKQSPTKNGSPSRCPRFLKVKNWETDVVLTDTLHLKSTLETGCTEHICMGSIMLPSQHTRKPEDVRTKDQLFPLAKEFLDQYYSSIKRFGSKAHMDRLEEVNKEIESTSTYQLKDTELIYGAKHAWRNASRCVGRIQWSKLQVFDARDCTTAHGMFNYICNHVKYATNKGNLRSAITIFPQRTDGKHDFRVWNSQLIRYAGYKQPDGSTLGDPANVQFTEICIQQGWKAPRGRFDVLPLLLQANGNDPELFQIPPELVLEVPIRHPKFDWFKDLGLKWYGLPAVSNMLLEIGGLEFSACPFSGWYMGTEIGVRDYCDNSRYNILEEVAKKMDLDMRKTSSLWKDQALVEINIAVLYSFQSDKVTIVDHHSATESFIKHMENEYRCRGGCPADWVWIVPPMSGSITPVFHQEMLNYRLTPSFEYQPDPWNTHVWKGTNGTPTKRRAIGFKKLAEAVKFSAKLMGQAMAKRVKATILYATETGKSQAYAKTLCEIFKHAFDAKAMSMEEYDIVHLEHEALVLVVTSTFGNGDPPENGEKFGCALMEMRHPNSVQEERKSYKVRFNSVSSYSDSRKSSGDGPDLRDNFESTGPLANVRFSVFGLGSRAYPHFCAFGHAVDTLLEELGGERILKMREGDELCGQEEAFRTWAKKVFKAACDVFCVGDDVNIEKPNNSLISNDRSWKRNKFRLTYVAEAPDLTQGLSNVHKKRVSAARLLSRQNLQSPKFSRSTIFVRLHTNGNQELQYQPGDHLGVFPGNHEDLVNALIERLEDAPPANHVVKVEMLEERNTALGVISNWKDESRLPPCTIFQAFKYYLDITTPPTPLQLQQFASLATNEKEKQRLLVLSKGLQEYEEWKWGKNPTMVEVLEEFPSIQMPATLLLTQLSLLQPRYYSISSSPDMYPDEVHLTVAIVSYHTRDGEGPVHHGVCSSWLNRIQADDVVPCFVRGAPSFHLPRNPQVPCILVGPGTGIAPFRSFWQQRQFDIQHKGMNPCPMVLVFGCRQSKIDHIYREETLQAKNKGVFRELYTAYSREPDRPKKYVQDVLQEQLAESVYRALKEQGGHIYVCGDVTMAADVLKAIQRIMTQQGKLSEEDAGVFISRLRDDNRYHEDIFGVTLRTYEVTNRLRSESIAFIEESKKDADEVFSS
Description: Inhibitory activity against Neuronal Nitric Oxide Synthase (nNOS)

SMILES | Selectivity [1] | Selectivity [2] | Ki (Nitric oxide synthase 3) | Ki (Nitric oxide synthase 1)
N/C(=N\CCC[C@H](N)CNCCc1ccccc1N)N[N+](=O)[O-] | 22.1 | 135 | – | –
N/C(=N\CCC[C@H](N)CNCc1cccnc1)N[N+](=O)[O-] | 951 | 256 | – | –
N/C(=N\CCC[C@H](N)CNc1ccc(N)cc1)N[N+](=O)[O-] | 51 | 149 | – | –
N=C(NCCC[C@H](N)CNCCc1ccncc1)N[N+](=O)[O-] | – | – | 193 µM | –
N/C(=N\CCC[C@H](N)CNCCc1ccc(N)cc1)N[N+](=O)[O-] | 230 | 458 | – | –
N/C(=N\CCC[C@H](N)CNCCc1cccc(N)c1)N[N+](=O)[O-] | 35 | 122 | – | –
N/C(=N\CCC[C@H](N)CNc1cccc(N)c1)N[N+](=O)[O-] | 36 | 127 | – | –
N=C(NCCC[C@H](N)CNCCc1ccccn1)N[N+](=O)[O-] | – | – | 123 µM | –
COC(=O)[C@@H](CCCNC(=N)N[N+](=O)[O-])NC(=O)[C@H](N)Cc1ccccc1 (H-[dF]-[dArg(NO2)]-OMe) | 2.5 | 1800 | – | 2 µM
NCc1ccccc1NC[C@@H](N)CCC/N=C(\N)N[N+](=O)[O-] | 7.17 | 5.28 | – | –
NCc1ccc(NC[C@@H](N)CCC/N=C(\N)N[N+](=O)[O-])cc1 | 299 | 245 | – | –
NCCCC[C@@H](N)C(=O)N[C@H](CCC/N=C(/N)N[N+](=O)[O-])C(N)=O (H-[dK]-[dArg(NO2)]-NH2) | – | – | – | 0.89 µM
